Data reported in article PMC12281424, “A Rac-specific competitive inhibitor of guanine nucleotide binding reduces metastasis in triple-negative breast cancer” (Cell Reports Medicine, 2025).

Experiments:
[1] = target: EphA1(h) (Homo sapiens, UniProt P21709); experiment: Kinase Profiler; type: biochemical
Method: (§2) The kinase profiler was performed by the company Eurofins (Discovery, Panlab and Cerep).

[2] = target: CaMKIV(h) (Homo sapiens, UniProt Q16566); experiment: Kinase Profiler; type: biochemical
Method: as §2

[3] = target: Transporter, Norepinephrine (NET) (Homo sapiens, UniProt P23975); experiment: Safety screen; type: binding
Method: (§3) Blood cell counts, kinase profiler, safety screen, bacterial cytotoxicity, Ames, micronucleus assays were performed by the company Eurofins (France).

[4] = target: DYRK1A(h) (Homo sapiens, UniProt Q13627); experiment: Kinase Profiler; type: biochemical
Method: (§4) Blood cell counts, kinase profiler, safety screen, bacterial cytotoxicity, Ames, micronucleus assays were performed by the company Eurofins (France). The kinase profiler was performed by the company Eurofins (Discovery, Panlab and Cerep).

[5] = target: Pim-2(h) (Homo sapiens, UniProt Q9P1W9); experiment: Kinase Profiler; type: biochemical
Method: as §4

[6] = system: MDA-MB-468 Luc cells; experiment: Focus formation (clonogenic) assay; type: cell-based
Method: (§1) Figure 5 A41 decreases growth and invasiveness of TNBC cells in vitro (A) Representative images of RAC-GTP levels (red) in MDA-MB-468 Luc cells in the absence (CTL) and presence of EHT1864, NSC23766, or A41 (1 h at 10 μM) (left). Luciferase (Luc, green) was used to detect the cells. RAC-GTP mean fluorescence intensity was quantified inside the cell area (right) (n = 31–37 cells from 3 independent experiments; ∗p < 0.05, ∗∗∗p < 0.001) (scale bars: 10 μm). […] (C) Quantification of colony number of indicated cancer cell lines in the presence of A41 (10 μM) expressed as the percentage of control in the absence of A41. Results shown are representative of N > 3 independent experiments. (D) Immunoblot analysis and corresponding quantification of AKT and P44/42 expression and phosphorylation (pAKT, p44/42) in MDA-MB-468 Luc cells in the absence (−) and presence of NSC23766 or A41 (1 h at 10^−5 M). Results shown are representative of 3 independent experiments. ∗∗p < 0.01 vs. untreated cells, ^###p < 0.001 vs. NSC23766-treated cells. (E) 3D invasion assay of MDA-MB-468 Luc and cancer-associated fibroblasts (CAFs) and corresponding quantification (scale bars: 200 μm). […]
1000 cells/well from the indicated cancer cell lines were seeded in 6-wells plates and allowed to grow 2 days before treatments. […] The area occupied by the cells was then quantified with ImageJ software.

[7] = target: MAK(h) (Homo sapiens, UniProt P20794); experiment: Kinase Profiler; type: biochemical
Method: as §2

[8] = target: Cannabinoid CB1 (Homo sapiens, UniProt P21554); experiment: Safety screen; type: binding
[9] = target: FGFR3(h) (Homo sapiens, UniProt P22607); experiment: Kinase Profiler; type: biochemical
Method: as §2

[10] = target: PDHK2(h) (Homo sapiens, UniProt Q15119); experiment: Kinase Profiler; type: biochemical
Method: as §4

[11] = target: ROCK-I(h) (Homo sapiens, UniProt Q13464); experiment: Kinase Profiler; type: biochemical
Method: as §4

[12] = target: MEK2(h) (Homo sapiens, UniProt P36507); experiment: Kinase Profiler; type: biochemical
Method: as §2

[13] = target: Leukotriene, Cysteinyl CysLT1 (Homo sapiens, UniProt Q9Y271); experiment: Safety screen; type: binding
Method: as §3

[14] = target: NLK(h) (Homo sapiens, UniProt Q9UBE8); experiment: Kinase Profiler; type: biochemical
Method: as §2

[15] = target: IKKβ(h) (Homo sapiens, UniProt O14920); experiment: Kinase Profiler; type: biochemical
Method: as §4

[16] = target: Serotonin (5-Hydroxytryptamine) 5-HT2A (Homo sapiens, UniProt P28223); experiment: Safety screen; type: binding
Method: as §4

[17] = target: PI3KC2g(h) (Homo sapiens, UniProt O75747); experiment: Kinase Profiler; type: biochemical
Method: as §2

[18] = target: ACK1(h) (Homo sapiens, UniProt Q07912); experiment: Kinase Profiler; type: biochemical
Method: as §2

[19] = target: PKAcβ(h) (Homo sapiens, UniProt P22694); experiment: Kinase Profiler; type: biochemical
Method: as §4

[20] = system: breast CAF spheroids; experiment: 3D invasion assay; type: cell-based, human; settings: 10^-5 M
Method: as §1, with “Results shown are representative of 3 independent experiments. ∗∗p < 0.01 vs. untreated cells, ^###p < 0.001 vs. NSC23766-treated cells.” left out
3D-spheroids were obtained, according the protocol previously described,[62] by re-suspending cells at a concentration of 1.25 × 10^4 cells/ml in 20% Methyl-cellulose/80% DMEM 10% FBS. […] Invasion was monitored by fully automated Dmi6000b Wide Field Fluorescence Microscope (Leica Microsystems, Wetzlar, Germany) during 48h.

[21] = target: Rsk4(h) (Homo sapiens, UniProt Q9UK32); experiment: Kinase Profiler; type: biochemical
Method: as §2

[22] = target: CDKL2(h) (Homo sapiens, UniProt Q92772); experiment: Kinase Profiler; type: biochemical
Method: as §2

[23] = target: CK1γ3(h) (Homo sapiens, UniProt Q9Y6M4); experiment: Kinase Profiler; type: biochemical
Method: as §4

[24] = target: Adenosine A1 (Homo sapiens, UniProt P30542); experiment: Safety screen; type: binding
Method: as §2

[25] = target: CDK5/p35(h) (Homo sapiens, UniProt Q00535); experiment: Kinase Profiler; type: biochemical
Method: as §4

[26] = target: Transporter, Dopamine (DAT) (Homo sapiens, UniProt Q01959); experiment: Safety screen; type: binding
Method: as §3

Sequence of Pim-2(h) (Q9P1W9 whole entry): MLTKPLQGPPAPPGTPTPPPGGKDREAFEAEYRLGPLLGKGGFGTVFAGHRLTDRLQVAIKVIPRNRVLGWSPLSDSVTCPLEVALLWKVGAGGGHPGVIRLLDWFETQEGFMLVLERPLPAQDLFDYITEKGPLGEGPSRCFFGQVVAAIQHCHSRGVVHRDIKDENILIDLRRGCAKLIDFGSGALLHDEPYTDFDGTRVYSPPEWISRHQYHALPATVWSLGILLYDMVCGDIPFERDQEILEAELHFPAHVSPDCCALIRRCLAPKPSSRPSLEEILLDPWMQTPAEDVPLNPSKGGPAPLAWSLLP
Sequence of CaMKIV(h) (Q16566 whole entry): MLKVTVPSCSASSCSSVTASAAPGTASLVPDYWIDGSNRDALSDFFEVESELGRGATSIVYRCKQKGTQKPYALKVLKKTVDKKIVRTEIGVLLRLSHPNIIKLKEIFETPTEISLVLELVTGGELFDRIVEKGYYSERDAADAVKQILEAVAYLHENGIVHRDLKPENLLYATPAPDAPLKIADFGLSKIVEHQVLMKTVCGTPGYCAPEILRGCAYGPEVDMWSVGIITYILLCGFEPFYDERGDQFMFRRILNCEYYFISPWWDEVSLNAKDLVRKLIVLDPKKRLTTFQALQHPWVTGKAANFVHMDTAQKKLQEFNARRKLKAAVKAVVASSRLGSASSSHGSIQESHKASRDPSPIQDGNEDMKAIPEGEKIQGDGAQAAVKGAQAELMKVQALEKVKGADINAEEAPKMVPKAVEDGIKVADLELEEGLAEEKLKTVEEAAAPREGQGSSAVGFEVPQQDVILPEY
Sequence of FGFR3(h) (P22607 23-806): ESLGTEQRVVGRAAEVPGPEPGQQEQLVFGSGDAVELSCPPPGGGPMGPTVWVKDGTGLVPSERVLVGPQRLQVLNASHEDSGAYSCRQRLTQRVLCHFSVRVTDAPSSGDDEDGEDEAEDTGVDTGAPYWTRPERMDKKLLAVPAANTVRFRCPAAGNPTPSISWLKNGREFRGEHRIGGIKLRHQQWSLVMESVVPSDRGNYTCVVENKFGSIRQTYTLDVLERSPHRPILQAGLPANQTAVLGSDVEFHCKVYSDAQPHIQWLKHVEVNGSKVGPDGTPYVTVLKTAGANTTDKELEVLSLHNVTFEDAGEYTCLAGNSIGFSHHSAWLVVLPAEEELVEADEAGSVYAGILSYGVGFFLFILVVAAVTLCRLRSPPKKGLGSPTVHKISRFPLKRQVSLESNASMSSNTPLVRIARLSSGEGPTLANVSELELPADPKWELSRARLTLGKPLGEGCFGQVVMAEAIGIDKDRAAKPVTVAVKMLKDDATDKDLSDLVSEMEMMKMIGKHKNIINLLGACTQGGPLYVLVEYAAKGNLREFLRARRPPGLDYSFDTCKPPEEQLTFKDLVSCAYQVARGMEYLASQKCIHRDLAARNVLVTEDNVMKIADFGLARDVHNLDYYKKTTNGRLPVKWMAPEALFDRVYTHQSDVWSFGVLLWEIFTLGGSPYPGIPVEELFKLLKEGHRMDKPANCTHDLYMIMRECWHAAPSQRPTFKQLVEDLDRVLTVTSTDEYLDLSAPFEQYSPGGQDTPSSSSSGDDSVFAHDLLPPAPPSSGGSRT
Sequence of MEK2(h) (P36507 whole entry): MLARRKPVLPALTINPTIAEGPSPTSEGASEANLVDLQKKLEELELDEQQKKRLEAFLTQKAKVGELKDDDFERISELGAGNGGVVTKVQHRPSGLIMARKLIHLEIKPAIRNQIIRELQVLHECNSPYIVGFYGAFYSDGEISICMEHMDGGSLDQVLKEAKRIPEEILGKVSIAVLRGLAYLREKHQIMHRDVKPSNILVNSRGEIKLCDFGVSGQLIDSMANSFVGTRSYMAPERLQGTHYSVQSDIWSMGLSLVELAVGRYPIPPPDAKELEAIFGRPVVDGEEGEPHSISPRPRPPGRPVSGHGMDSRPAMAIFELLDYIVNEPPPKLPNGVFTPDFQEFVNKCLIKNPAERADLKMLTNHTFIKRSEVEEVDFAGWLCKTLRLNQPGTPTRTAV
Sequence of Adenosine A1 (P30542 whole entry): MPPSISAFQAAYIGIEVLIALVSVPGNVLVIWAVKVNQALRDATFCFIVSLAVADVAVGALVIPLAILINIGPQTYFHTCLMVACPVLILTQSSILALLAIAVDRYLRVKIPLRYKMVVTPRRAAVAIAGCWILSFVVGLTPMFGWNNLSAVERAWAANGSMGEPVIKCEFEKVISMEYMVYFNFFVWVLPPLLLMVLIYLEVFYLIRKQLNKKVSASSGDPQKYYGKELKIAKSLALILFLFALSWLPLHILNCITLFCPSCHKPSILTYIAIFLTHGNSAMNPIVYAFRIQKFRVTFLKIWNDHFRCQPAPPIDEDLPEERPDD
Sequence of CK1γ3(h) (Q9Y6M4 whole entry): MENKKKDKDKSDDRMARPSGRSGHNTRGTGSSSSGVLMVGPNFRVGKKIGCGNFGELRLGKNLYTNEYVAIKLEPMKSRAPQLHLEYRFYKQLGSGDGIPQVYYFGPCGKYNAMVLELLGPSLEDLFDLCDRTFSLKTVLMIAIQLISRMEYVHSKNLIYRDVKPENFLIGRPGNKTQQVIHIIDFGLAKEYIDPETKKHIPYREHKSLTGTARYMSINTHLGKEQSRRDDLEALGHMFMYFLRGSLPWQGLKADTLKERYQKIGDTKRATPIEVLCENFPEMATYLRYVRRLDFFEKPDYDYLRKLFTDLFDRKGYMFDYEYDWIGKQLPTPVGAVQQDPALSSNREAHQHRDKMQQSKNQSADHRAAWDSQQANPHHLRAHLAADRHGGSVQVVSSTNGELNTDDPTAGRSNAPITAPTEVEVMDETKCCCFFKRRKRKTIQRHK
Sequence of Leukotriene, Cysteinyl CysLT1 (Q9Y271 whole entry): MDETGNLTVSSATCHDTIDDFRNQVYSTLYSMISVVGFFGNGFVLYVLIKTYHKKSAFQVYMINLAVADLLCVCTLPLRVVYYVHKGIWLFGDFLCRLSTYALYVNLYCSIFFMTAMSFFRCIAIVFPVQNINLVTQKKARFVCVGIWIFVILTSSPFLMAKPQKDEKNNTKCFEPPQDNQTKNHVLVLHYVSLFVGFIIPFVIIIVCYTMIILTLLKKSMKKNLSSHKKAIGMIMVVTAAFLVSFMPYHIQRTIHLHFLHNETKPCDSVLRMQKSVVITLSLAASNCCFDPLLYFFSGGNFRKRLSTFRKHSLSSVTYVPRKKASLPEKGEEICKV
Sequence of CDKL2(h) (Q92772 whole entry): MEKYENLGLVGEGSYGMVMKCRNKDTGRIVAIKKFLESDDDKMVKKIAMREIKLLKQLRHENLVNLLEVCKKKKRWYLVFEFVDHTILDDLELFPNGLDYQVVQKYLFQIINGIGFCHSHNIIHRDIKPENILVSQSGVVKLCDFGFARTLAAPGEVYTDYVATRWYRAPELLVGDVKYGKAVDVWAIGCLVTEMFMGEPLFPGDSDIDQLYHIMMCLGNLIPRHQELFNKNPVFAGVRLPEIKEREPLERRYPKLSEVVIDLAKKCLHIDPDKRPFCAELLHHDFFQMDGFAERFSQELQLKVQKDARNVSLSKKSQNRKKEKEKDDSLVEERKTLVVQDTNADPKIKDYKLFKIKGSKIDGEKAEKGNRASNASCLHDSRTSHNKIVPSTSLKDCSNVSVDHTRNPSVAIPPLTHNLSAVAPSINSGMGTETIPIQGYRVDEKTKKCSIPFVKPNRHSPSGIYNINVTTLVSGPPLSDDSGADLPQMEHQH
Sequence of ROCK-I(h) (Q13464 whole entry): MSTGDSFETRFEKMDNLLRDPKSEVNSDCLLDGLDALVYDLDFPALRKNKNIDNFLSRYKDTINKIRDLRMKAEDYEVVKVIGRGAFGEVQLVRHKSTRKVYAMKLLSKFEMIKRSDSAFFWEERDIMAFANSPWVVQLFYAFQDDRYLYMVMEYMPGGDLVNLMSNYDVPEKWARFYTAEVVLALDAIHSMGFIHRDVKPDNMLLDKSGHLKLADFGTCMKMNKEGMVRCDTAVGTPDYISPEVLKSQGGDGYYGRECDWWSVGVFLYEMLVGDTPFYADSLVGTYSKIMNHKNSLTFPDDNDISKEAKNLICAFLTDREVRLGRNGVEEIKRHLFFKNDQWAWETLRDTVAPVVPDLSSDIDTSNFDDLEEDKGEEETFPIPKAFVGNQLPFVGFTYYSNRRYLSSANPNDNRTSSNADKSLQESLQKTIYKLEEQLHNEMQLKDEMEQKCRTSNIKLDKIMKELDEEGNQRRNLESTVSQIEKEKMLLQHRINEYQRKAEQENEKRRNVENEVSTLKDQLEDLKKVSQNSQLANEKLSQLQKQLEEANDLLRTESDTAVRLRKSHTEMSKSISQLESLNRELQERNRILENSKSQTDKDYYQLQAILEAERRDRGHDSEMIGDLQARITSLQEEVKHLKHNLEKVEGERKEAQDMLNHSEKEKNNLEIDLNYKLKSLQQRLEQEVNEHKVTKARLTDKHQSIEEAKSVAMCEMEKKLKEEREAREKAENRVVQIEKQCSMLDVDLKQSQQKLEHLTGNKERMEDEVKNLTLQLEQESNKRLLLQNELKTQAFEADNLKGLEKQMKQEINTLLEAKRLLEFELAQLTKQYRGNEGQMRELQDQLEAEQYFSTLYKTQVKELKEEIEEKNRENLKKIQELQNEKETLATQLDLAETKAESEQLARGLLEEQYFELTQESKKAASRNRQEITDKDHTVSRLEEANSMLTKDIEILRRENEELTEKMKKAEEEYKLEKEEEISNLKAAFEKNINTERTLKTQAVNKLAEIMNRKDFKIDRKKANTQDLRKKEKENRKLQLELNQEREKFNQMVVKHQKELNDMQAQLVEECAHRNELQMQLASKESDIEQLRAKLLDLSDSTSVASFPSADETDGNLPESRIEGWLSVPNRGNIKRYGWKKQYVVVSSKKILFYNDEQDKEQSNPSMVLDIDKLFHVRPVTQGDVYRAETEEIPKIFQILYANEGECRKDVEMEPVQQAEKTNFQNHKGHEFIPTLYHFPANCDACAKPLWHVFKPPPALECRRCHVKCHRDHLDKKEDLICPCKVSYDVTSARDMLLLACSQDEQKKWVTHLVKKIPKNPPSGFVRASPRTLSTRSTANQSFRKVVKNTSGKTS

COc1ccc(OC)c(NS(=O)(=O)c2ccc(NC(=O)CCSc3ccc(C)cc3)cc2)c1 [Compound A41]
Activity(%) [1]: 87%
Activity(%) [2]: 114%
% inh. [3]: 36%
Activity(%) [4]: 93%
Activity(%) [5]: 110%
IC50 ([6]; dose-response curve, Figure 5B, read-out: IC50, colony formation): 2.1 µM
colony formation ([6]; increasing concentrations): significantly inhibited colony formation in a dose-dependent manner
Activity(%) [7]: 117%
% inh. [8]: 81%
Activity(%) [9]: 89%
Activity(%) [10]: 96%
Activity(%) [11]: 101%
Activity(%) [12]: 109%
% inh. [13]: 14%
Activity(%) [14]: 99%
Activity(%) [15]: 110%
% inh. [16]: 84%
Activity(%) [17]: 114%
Activity(%) [18]: 103%
Activity(%) [19]: 116%
invasion of CAF spheroids [20]: anti-invasion property
Activity(%) [21]: 128%
Activity(%) [22]: 103%
Activity(%) [23]: 101%
% inh. [24]: 2%
Activity(%) [25]: 99%
% inh. [26]: 30%
